According to PubChem BioAssay AID977605 (Broad Institute, 2014):
Calls of active or inactive are those of the source.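 Rule for the calls: active = fitted curve reaches 40% activation below the top valid tested dose, in every test run; inconclusive = test runs disagree on the call; inactive = the rest, including effects opposite to the expected direction.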

Assay: endothelial E-selectin upregulation by compounds – imaging, HUVEC, cherry-picked samples, dose response (AID 977605);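 note: signal is the share of imaged cells scored positive for E-selectin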
Conditions: HUVEC E-selectin immunostaining
[1] = at 21 µM (top of the series), percent of TNF-alpha response over vehicle
[2] = at 19.5 µM (top of the series), percent of TNF-alpha response over vehicle

COc1ccc(S(=O)(=O)Nc2ccc3c(c2)CC(=O)N([C@@H](C)CO)C[C@@H](C)[C@@H](CN(C)C(=O)NC2CCCCC2)O3)cc1
activation [1]: -0.169% (inactive)

C[C@@H]1CN([C@H](C)CO)C(=O)c2cc(NC(=O)CCC(F)(F)F)ccc2O[C@@H]1CN(C)Cc1ccc(C(F)(F)F)cc1
activation [2]: 0.048% (inactive)

C[C@H](CO)N1C[C@H](C)[C@@H](CN(C)S(=O)(=O)c2cn(C)cn2)Oc2ccc(NS(=O)(=O)c3ccc(Cl)cc3)cc2C1=O
activation [2]: -0.286% (inactive)

COc1ccc(CN(C)C[C@H]2Oc3ccc(NC(=O)Cn4cnnn4)cc3CC(=O)N([C@@H](C)CO)C[C@@H]2C)cc1
activation [2]: -0.061% (inactive)

COc1ccc(CN(C)C[C@@H]2Oc3ccc(NC(=O)Nc4ccc(F)cc4)cc3CC(=O)N([C@@H](C)CO)C[C@@H]2C)cc1
activation [2]: 0.025% (inactive)

COc1ccc(NC(=O)N(C)C[C@@H]2Oc3ccc(NC(=O)Cc4ccccc4)cc3CC(=O)N([C@H](C)CO)C[C@H]2C)cc1
activation [2]: -0.201% (inactive)

CC(C)NC(=O)N(C)C[C@@H]1Oc2ccc(NC(=O)Cn3cnnn3)cc2CC(=O)N([C@@H](C)CO)C[C@H]1C
activation [2]: 0.965% (inactive)

COc1ccc(CN(C)C[C@@H]2Oc3c(NC(=O)c4cnccn4)cccc3C(=O)N([C@@H](C)CO)C[C@H]2C)cc1
activation [1]: -0.033% (inactive)

C[C@H]1CN([C@@H](C)CO)C(=O)Cc2cc(NC(=O)C3CC3)ccc2O[C@@H]1CN(C)S(=O)(=O)c1cccs1
activation [2]: -0.038% (inactive)

C[C@@H]1CN([C@H](C)CO)C(=O)c2cc(NC(=O)Cn3cnnn3)ccc2O[C@@H]1CN(C)Cc1ccc(Oc2ccccc2)cc1
activation [2]: -0.117% (inactive)

COc1ccc(NC(=O)c2cc(S(=O)(=O)N3CCCCC3)c[nH]2)cc1
activation [2]: 0.335% (inactive)

C[C@@H]1CN([C@@H](C)CO)C(=O)c2cccc(NS(=O)(=O)c3ccc(F)cc3)c2O[C@H]1CN(C)Cc1ccc(C(=O)O)cc1
activation [2]: -0.15% (inactive)

C[C@H]1CN([C@@H](C)CO)C(=O)Cc2cc(NC(=O)Nc3ccc(F)cc3)ccc2O[C@H]1CN(C)C(=O)Nc1ccc(C(F)(F)F)cc1
activation [2]: 0.219% (inactive)

Cc1noc(C)c1NC(=O)Nc1ccc2c(c1)CC(=O)N([C@@H](C)CO)C[C@@H](C)[C@@H](CN(C)Cc1ccc(Cl)c(Cl)c1)O2
activation [1]: 3.17% (inactive)

NS(=O)(=O)c1ccc(NC(=O)CCC(=O)N2CCOCC2)cc1
activation [2]: 0.021% (inactive)

COc1ccc(CN(C)C[C@@H]2Oc3ccc(NC(=O)Nc4ccc(F)cc4)cc3CC(=O)N([C@H](C)CO)C[C@H]2C)cc1
activation [2]: 0.445% (inactive)

C[C@@H]1CN([C@@H](C)CO)C(=O)c2cccc(NC(=O)C3CCOCC3)c2O[C@@H]1CN(C)Cc1ccncc1
activation [2]: 0.913% (inactive)

C[C@H](CO)N1C[C@H](C)[C@H](CN(C)S(=O)(=O)c2ccc(Cl)cc2)Oc2ccc(NC(=O)Nc3ccc(F)cc3)cc2CC1=O
activation [1]: 0.805% (inactive)

Cc1ccccc1CNc1ncnc2cc(Cl)ccc12
activation [2]: 0.221% (inactive)

CC(C)(C)CC(=O)Nc1ccc(-c2cn3cccnc3n2)cc1
activation [2]: 0.057% (inactive)

C[C@H]1CN([C@@H](C)CO)C(=O)c2cccc(NC(=O)Nc3ccc(F)cc3)c2O[C@H]1CN(C)Cc1ccncc1
activation [2]: 0.058% (inactive)

CCNS(=O)(=O)c1ccc(CCC(=O)N2CCN(c3ccc(OC)cc3)CC2)cc1
activation [2]: -0.027% (inactive)

C[C@@H]1CN([C@@H](C)CO)C(=O)c2cc(NS(=O)(=O)c3cccs3)ccc2O[C@H]1CN(C)C(=O)Nc1ccc2c(c1)OCO2
activation [2]: -0.287% (inactive)

COc1ccc(NC(=O)N(C)C[C@@H]2Oc3ccc(NC(=O)c4ccncc4)cc3CC(=O)N([C@@H](C)CO)C[C@H]2C)cc1
activation [2]: -0.088% (inactive)

CC(C)NC(=O)N(C)C[C@@H]1Oc2c(NC(=O)c3ccc(-c4nccs4)cc3)cccc2C(=O)N([C@@H](C)CO)C[C@@H]1C
activation [1]: -0.199% (inactive)

CCOc1ccc2ncc(S(=O)(=O)c3ccc(C)cc3)c(N3CCC4(CC3)OCCO4)c2c1
activation [2]: -0.045% (inactive)

C[C@@H]1CN([C@H](C)CO)C(=O)c2cc(NS(C)(=O)=O)ccc2O[C@H]1CN(C)C(=O)Nc1ccccc1
activation [2]: -0.057% (inactive)

C[C@H]1CN([C@@H](C)CO)C(=O)c2cc(NC(=O)C3CCCCC3)ccc2O[C@H]1CN(C)Cc1ccc(C(=O)Nc2ccccc2N)cc1
activation [2]: 4.92% (inactive)

CC(C)NC(=O)Nc1cccc2c1O[C@@H](CN(C)Cc1ccc(C(F)(F)F)cc1)[C@H](C)CN([C@H](C)CO)C2=O
activation [2]: -0.054% (inactive)

C[C@H](CO)N1C[C@H](C)[C@H](CN(C)Cc2ccc(C(F)(F)F)cc2)Oc2ccc(N(C)C)cc2CC1=O
activation [2]: 0.692% (inactive)

Cc1nn(CCS(=O)(=O)c2ccc(Cl)cc2)c(C)c1Br
activation [2]: 0.08% (inactive)

CC(C)NC(=O)Nc1ccc2c(c1)CC(=O)N([C@H](C)CO)C[C@@H](C)[C@H](CN(C)Cc1ccc(Oc3ccccc3)cc1)O2
activation [2]: -0.138% (inactive)

COc1ccc([C@H]2CC(=O)C[C@@H](CCn3nnc4ccccc43)O2)cc1
activation [2]: 0.021% (inactive)

COC(=O)c1cc(S(=O)(=O)NCC2CCN(CCc3cccs3)CC2)c[nH]1
activation [2]: 0.021% (inactive)

Cc1ccc(S(=O)(=O)N2CCOCC2)cc1C(=O)NC1CCCC1
activation [2]: -0.154% (inactive)

Cc1noc(C)c1NC(=O)Nc1cccc2c1O[C@H](CN(C)CC1CCCCC1)[C@H](C)CN([C@@H](C)CO)C2=O
activation [2]: 0.049% (inactive)

Cc1cccc(NS(=O)(=O)c2ccc(S(=O)(=O)N3CCCC3)cc2)c1
activation [2]: 1.83% (inactive)

C[C@H](CO)N1C[C@H](C)[C@@H](CN(C)Cc2ccc(Cl)c(Cl)c2)Oc2c(NC(=O)CCCCCC(=O)Nc3ccccc3N)cccc2C1=O
activation [1]: 3.2% (inactive)

COc1ccc(S(=O)(=O)N(C)C[C@H]2Oc3ccc(NC(=O)Nc4ccc5c(c4)OCO5)cc3CC(=O)N([C@H](C)CO)C[C@@H]2C)cc1
activation [2]: 0.086% (inactive)

C[C@H](CO)N1C[C@H](C)[C@H](CN(C)CC2CC2)Oc2c(NC(=O)C3CC3)cccc2C1=O
activation [2]: -0.037% (inactive)

CNC[C@@H]1Oc2c(NC(=O)Nc3ccc(F)cc3)cccc2C(=O)N([C@H](C)CO)C[C@H]1C
activation [1]: -0.191% (inactive)

CC(C)NC(=O)N(C)C[C@@H]1Oc2ccc(NS(=O)(=O)c3cccs3)cc2CC(=O)N([C@@H](C)CO)C[C@H]1C
activation [2]: 0.096% (inactive)

C[C@H](CO)N1C[C@H](C)[C@@H](CN(C)C(=O)NC2CCCCC2)Oc2ccc(NC(=O)Nc3ccc(C(F)(F)F)cc3)cc2C1=O
activation [1]: -0.177% (inactive)

C[C@@H]1CN([C@H](C)CO)C(=O)c2cccc(NS(C)(=O)=O)c2O[C@@H]1CN(C)Cc1ccncc1
activation [2]: -0.083% (inactive)

C[C@@H]1CN([C@@H](C)CO)C(=O)c2cc(NC(=O)Cn3cnnn3)ccc2O[C@@H]1CN(C)Cc1ccc(Oc2ccccc2)cc1
activation [2]: -0.116% (inactive)

C[C@H](CO)N1C[C@H](C)[C@H](CN(C)S(=O)(=O)c2ccc(Cl)cc2)Oc2ccc(NS(=O)(=O)c3ccc(F)cc3)cc2CC1=O
activation [1]: -0.115% (inactive)

C[C@@H]1CN([C@H](C)CO)C(=O)c2cccc(NC(=O)c3ccncc3)c2O[C@H]1CN(C)S(=O)(=O)c1ccccc1
activation [2]: 2.7% (inactive)

Cc1ccc(-c2nc3ccccc3c(=O)n2-c2cccc(O)c2)cc1
activation (at 19.5 µM (top of the series)): 0.249% (inactive)

Cc1ccccc1NC(=O)c1cc(S(=O)(=O)Nc2cccc(C(=O)O)c2)ccc1Cl
activation [2]: 0.3% (inactive)

C[C@H]1CN([C@@H](C)CO)C(=O)Cc2cc(NS(C)(=O)=O)ccc2O[C@@H]1CN(C)Cc1ccc(Oc2ccccc2)cc1
activation [1]: 4.65% (inactive)

CCc1ccc(C(C(=O)NC2CCCCC2)N(C(=O)c2csnn2)C2CC2)cc1 (centres undefined)
activation [2]: -0.021% (inactive)

C[C@H]1CN([C@@H](C)CO)C(=O)c2cccc(NC(=O)c3ccc(-c4nccs4)cc3)c2O[C@@H]1CN(C)Cc1ccc(Cl)c(Cl)c1
activation [2]: 4.07% (inactive)

COc1cccc(-c2cccc(-c3nc(C(=O)Nc4ccc(-c5ccccc5)cc4)cc4c3[C@@H](CCO)N(S(=O)C(C)(C)C)C4)c2)c1 (some centres undefined)
activation [2]: 1.45% (inactive)

C[C@H]1CN([C@@H](C)CO)C(=O)c2cccc(NS(=O)(=O)c3cn(C)cn3)c2O[C@@H]1CN(C)C(=O)Nc1ccc(F)cc1
activation [1]: -0.136% (inactive)

CC(C)C(c1nnnn1C1CCCCC1)N1CCN(C(=O)c2ccco2)CC1 (centres undefined)
activation [2]: -0.112% (inactive)

O=C(CCCn1c(=O)c2ccccc2n(CC(=O)N2CCN(c3ccccc3)CC2)c1=O)NCc1ccco1
activation [2]: -0.084% (inactive)

CCCCC1C(=O)N(c2ccccc2)N(c2ccc(O)cc2)C1=O (centres undefined)
activation [2]: -0.246% (inactive)

O=C(O)CC1C(=O)NCCN1Cc1cccs1 (centres undefined)
activation [2]: -0.112% (inactive)

CNC(=O)Oc1ccc2c(c1)[C@]1(C)CCN(C)C1N2C (some centres undefined)
activation [2]: -0.106% (inactive)

CC(=O)N(C)C[C@@H]1Oc2cc(C#Cc3ccccn3)ccc2S(=O)(=O)N([C@H](C)CO)C[C@@H]1C
activation [2]: -0.123% (inactive)

CCCC#Cc1ccc2c(c1)O[C@H](CN(C)C(C)=O)[C@H](C)CN([C@@H](C)CO)S2(=O)=O
activation [2]: 0.607% (inactive)

CN(C)c1cccc(C(=O)NCc2ccc3c(c2)OCO3)c1
activation [2]: 8.26% (inactive)

C/C(=N\NC(=O)c1cc(C(C)C)[nH]n1)c1ccco1
activation [2]: 0.133% (inactive)

C[C@H](CO)N1C[C@H](C)[C@H](CN(C)Cc2ccc(Cl)c(Cl)c2)Oc2ccc(NS(=O)(=O)c3cccs3)cc2C1=O
activation [2]: 0.328% (inactive)

C[C@H]1CN([C@@H](C)CO)C(=O)c2cc(C#Cc3cccc(F)c3)cnc2O[C@@H]1CN(C)C(=O)C1CC1
activation [2]: -0.134% (inactive)

COc1ccc(S(=O)(=O)Nc2cccc3c2O[C@H](CN(C)C(=O)Nc2c(C)noc2C)[C@H](C)CN([C@@H](C)CO)C3=O)cc1
activation [2]: -0.052% (inactive)

CCN(CC)C(=O)c1cn(-c2cccc(OC)c2)c(=O)c2ccccc12
activation [2]: -0.108% (inactive)

C[C@@H]1CN([C@H](C)CO)C(=O)c2cccc(NC(=O)C3CC3)c2O[C@@H]1CN(C)Cc1ccccc1
activation [2]: 0.474% (inactive)

COc1ccc(NS(=O)(=O)c2cccc(Cl)c2Cl)cc1S(=O)(=O)N1CCCCC1
activation [2]: -0.061% (inactive)
